Results published in ChEMBL document CHEMBL5576115, “Design and synthesis of chromene-1,2,3-triazole benzene sulfonamide hybrids as potent carbonic anhydrase-IX inhibitors against prostate cancer” (RSC Med Chem, 2024).
Active and inactive are the calls of the source. The rule behind the calls is not given here.

Tests used:
MCF7 [1] = test: Cytotoxicity against human MCF7 cells assessed as reduction in cell viability measured after 48 hrs by MTT assay; type: functional, cell-based; details: MCF7, 48 h
PC-3 [2] = test: Cytotoxicity against human PC-3 cells assessed as reduction in cell viability measured after 48 hrs by MTT assay; type: functional, cell-based; details: PC-3, 48 h
MCF7 [3] = test: Cytotoxicity against human MCF7 cells assessed as reduction in cell viability at 100 uM measured after 48 hrs by MTT assay; type: functional, cell-based
PC-3 [4] = test: Cytotoxicity against human PC-3 cells assessed as reduction in cell viability at 100 uM measured after 48 hrs by MTT assay; type: functional, cell-based
Carbonic anhydrase 9 = Carbonic anhydrase 9 (Homo sapiens, UniProt Q16790); test: biochemical; type: cell-based, Sf9
Description: Inhibition of human C-terminal His-tagged CA-9 (59 to 414 residues) expressed in baculovirus infected Sf9 insect cells

[5] = Cytotoxicity against human WI-38 cells assessed as reduction in cell viability measured after 48 hrs by MTT assay; type: toxicity, cell-based
WI-38 = test: Cytotoxicity against human WI-38 cells assessed as cell death at 100 uM measured after 48 hrs by MTT assay relative to control; type: toxicity, cell-based; details: wi-38, 48 h
PC-3 [6] = test: Cell cycle arrest in human PC-3 cells assessed as accumulation of cells at S phase at cytotoxic IC50 measured after 48 hrs by propidium iodide staining based flow cytometry (reference value: 19.81%); type: functional
PC-3 [7] = test: Induction of apoptosis in human PC-3 cells assessed as accumulation of late apoptotic cells at cytotoxic IC50 measured after 48 hrs by Annexin-V-FITC/propidium iodide staining based flow cytometry relative to control; type: functional
PC-3 [8] = test: Cell cycle arrest in human PC-3 cells assessed as accumulation of cells at G1 phase at cytotoxic IC50 measured after 48 hrs by propidium iodide staining based flow cytometry relative to control; type: functional
PC-3 [9] = test: Induction of apoptosis in human PC-3 cells assessed as necrotic cells at cytotoxic IC50 measured after 48 hrs by Annexin-V-FITC/propidium iodide staining based flow cytometry (reference value: 1.61%); type: functional
PC-3 [10] = test: Cell cycle arrest in human PC-3 cells assessed as accumulation of cells at G2/M phase at cytotoxic IC50 measured after 48 hrs by propidium iodide staining based flow cytometry (reference value: 12.75%); type: functional
PC-3 [11] = test: Induction of apoptosis in human PC-3 cells assessed as accumulation of early apoptotic cells at cytotoxic IC50 measured after 48 hrs by Annexin-V-FITC/propidium iodide staining based flow cytometry relative to control; type: functional

| SMILES | IC50 (MCF7 [1]) [µM] | IC50 (PC-3 [2]) [µM] | also measured |
| --- | --- | --- | --- |
| Cc1cc(=O)oc2cc(OCc3cn(-c4ccc(S(=O)(=O)Nc5ccccn5)cc4)nn3)ccc12 | 32 | 15.8 |  |
| N=C(N)NS(=O)(=O)c1ccc(-n2cc(COc3cc(OCc4cn(-c5ccc(S(=O)(=O)NC(=N)N)cc5)nn4)c4c(-c5ccccc5)cc(=O)oc4c3)nn2)cc1 | 19.1 | 14.6 | Activity (MCF7 [3]): Active |
| Cc1cc(=O)oc2cc(OCc3cn(-c4ccc(S(=O)(=O)Nc5ncccn5)cc4)nn3)ccc12 | 41.4 | 8.31 |  |
| Cc1cc(C)nc(NS(=O)(=O)c2ccc(-n3cc(COc4cc(OCc5cn(-c6ccc(S(=O)(=O)Nc7nc(C)cc(C)n7)cc6)nn5)c5c(-c6ccccc6)cc(=O)oc5c4)nn3)cc2)n1 | > 100 | 7.57 | Activity (PC-3 [4]): Active; IC50 (Carbonic anhydrase 9): 0.134 µM; IC50 at 48 h [5]: 46.6 µM; Activity (WI-38): 23.6% |
| Cc1cc(C)nc(NS(=O)(=O)c2ccc(-n3cc(COc4ccc5c(C)cc(=O)oc5c4)nn3)cc2)n1 | 97.5 | 9.98 |  |
| COc1cccc2c1C(=O)c1c(O)c3c(c(O)c1C2=O)C[C@@](O)(C(=O)CO)C[C@@H]3O[C@H]1C[C@H](N)[C@H](O)[C@H](C)O1 [DOXORUBICIN] | 3.41 | 2.31 |  |
| Cc1cc(=O)oc2cc(OCc3cn(CC(=O)Nc4ccc(S(=O)(=O)Nc5ccccn5)cc4)nn3)ccc12 | 17 | 58.9 | Activity (MCF7 [3]): Active |
| Cc1cc(=O)oc2c(C)c(OCc3cn(CC(=O)Nc4ccc(S(=O)(=O)Nc5ccccn5)cc4)nn3)ccc12 | 38.9 | 40.1 |  |
| Cc1cc(=O)oc2c(C)c(OCc3cn(-c4ccc(S(=O)(=O)Nc5ncccn5)cc4)nn3)ccc12 | 16.7 | 12.5 |  |
| O=C(Cn1cc(COc2cc(OCc3cn(CC(=O)Nc4ccc(S(=O)(=O)Nc5ccccn5)cc4)nn3)c3c(-c4ccccc4)cc(=O)oc3c2)nn1)Nc1ccc(S(=O)(=O)Nc2ccccn2)cc1 | 57.2 | 5.52 | Activity (PC-3 [4]): Active; IC50 (Carbonic anhydrase 9): 0.214 µM; IC50 at 48 h [5]: 46.6 µM; Activity (WI-38): 23.6% |
| Cc1cc(C)nc(NS(=O)(=O)c2ccc(-n3cc(COc4ccc5c(C)cc(=O)oc5c4C)nn3)cc2)n1 | 41.1 | 21.4 |  |
| Cc1cc(=O)oc2c(C)c(OCc3cn(-c4ccc(S(=O)(=O)N=C(N)N)cc4)nn3)ccc12 | 56.3 | 29.7 |  |
| Cc1cc(=O)oc2cc(OCc3cn(-c4ccc(S(=O)(=O)N=C(N)N)cc4)nn3)ccc12 | 76 | 23.9 |  |
| O=c1cc(-c2ccccc2)c2c(OCc3cn(-c4ccc(S(=O)(=O)Nc5ncccn5)cc4)nn3)cc(OCc3cn(-c4ccc(S(=O)(=O)Nc5ncccn5)cc4)nn3)cc2o1 | 66.7 | 11.6 |  |
| O=c1cc(-c2ccccc2)c2c(OCc3cn(-c4ccc(S(=O)(=O)Nc5ccccn5)cc4)nn3)cc(OCc3cn(-c4ccc(S(=O)(=O)Nc5ccccn5)cc4)nn3)cc2o1 | 18 | 2.08 | Activity (PC-3 [6]): 15.29%; fold change (FC) (PC-3 [7]): 60; Activity (PC-3 [8]): 31.9%; Activity (PC-3 [9]): 4.68%; Activity (PC-3 [4]): Active; IC50 (Carbonic anhydrase 9): 0.113 µM; IC50 at 48 h [5]: 46.6 µM; Activity (WI-38): 23.6%; Activity (PC-3 [10]): 9.36%; fold change (FC) (PC-3 [11]): >18 |
| Cc1cc(=O)oc2c(C)c(OCc3cn(-c4ccc(S(=O)(=O)Nc5ccccn5)cc4)nn3)ccc12 | 14.3 | 8.95 | Activity (MCF7 [3]): Active |
